Measured values taken from US20100196464A1, “ORLISTAT PHARMACEUTICAL FORMULATIONS” (DR. REDDY'S LABORATORIES LIMITED, priority 2007, published 2010).

Experiments:
[1] = Particle size distribution; assay type: physicochemical
Source text: The term “average particle size” refers to particle sizes represented by D(0.5), wherein 50% of particles in a powder have sizes greater than, and 50% of particles have sizes less than, a specified value.
Various parameters impacting the preparation of solid oral dosage forms include the physical properties of active ingredients as well as those of the final blends of active ingredients with excipients, wherein the physical properties include flow properties, particle sizes (such as determined by sieve analyzers, electrical conductance instruments such as a Coulter counter, and laser light diffraction particle size analyzers such as the instruments available from Malvern Instruments, Ltd., Malvern, Worcestershire, United Kingdom), bulk densities and tapped densities, compressibility indexes, Hausner ratios (determined by USP density apparatus), flow properties (such as determined by Flowdex apparatus), etc.
The percent of particles with different dimensions that exist in a powder is called the particle size distribution. It is represented in certain ways. Particle size is the maximum dimension of a particle, normally expressed in units of μm. Particle size distributions can be expressed in terms of D(0.1), D(0.5), D(0.9) and D [4,3]. The D(0.1), D(0.5) and D(0.9) represent the 10th, median or the 50th percentile, and the 90th percentile of the particle size distribution, respectively. They can be expressed as volume, weight, or surface percentages. For example when measured by volume, D(0.1), D(0.5), D(0.9) is a value of the distribution such that 10%, 50%, 90% by volume of the particles have a size of this value or less, or is the percentage of particles smaller than that size. D(0.5) is also known as median diameter of particle. It is one of the important parameters representing characteristics of particle of powder. For a sample, if D(0.5)=5 μm, it means that 50% of the particles are smaller than 5 μm. Similarly, if D(0.1)=5 μm, 10% by volume of the particles are less than or equal to 5 μm, and if D(0.9)=5 μm, 90% of the particles are less than or equal to 5 μm. D[4,3] is the volume moment mean of the particles or the volume weighted particle size.

[2] = Bulk density and tapped density; assay type: physicochemical; conditions: orlistat used in the formulation of Example 6
Source text: Other important physicochemical characteristics of powders are the density properties such as bulk and tapped density, weight variation and flow properties such as angle of repose. Bulk density is the undisturbed packing density of that substance and tapped bulk density relates to the packing density after tapping a bed of substance until no change in the packing density is seen. Bulk density and tapped density, can be determined using compendial bulk density apparatus, such as the method given in Test 616 “Bulk Density and Tapped Density,” United States Pharmacopeia 29, United States Pharmacopeial Convention, Inc., Rockville, Md., 2005 (“USP”). Weight variation can be determined using the method given in United States Pharmacopeia 29.

[3] = cited from earlier work
[4] = physiological pH range; cited from earlier work
[5] = orlistat used in the formulation of Example 1
[6] = orlistat used in the formulation of Example 6

D(0.1) [1, 5]: 1.8 μm
D(0.5) [1, 5]: 8.6 μm
D(0.9) [1, 5]: 24.5 μm
D(0.1) [1, 6]: 18.7 μm
D(0.5) [1, 6]: 84.2 μm
D(0.9) [1, 6]: 171.8 μm
Bulk density [2]: 0.424 g/mL
Tapped density [2]: 0.571 g/mL
SMILES: CCCCCCCCCCC[C@@H](C[C@@H]1OC(=O)[C@H]1CCCCCC)OC(=O)[C@H](CC(C)C)NC=O [Orlistat, (S)-1-[[(2S,3S)-3-hexyl-4-oxo-2-oxetanyl]methyl]-dodecyl ester]
Solubility in chloroform ([3]; chloroform): freely soluble
Solubility in ethanol ([3]; ethanol): very soluble
Solubility in methanol ([3]; methanol): very soluble
Solubility in water ([3]; water): practically insoluble
pKa [4]: no pKa within the physiological pH range
